Earlier results in patent publication US6579533B1, “Bioabsorbable drug delivery system for local treatment and prevention of infections” (Bioasborbable Concepts, Ltd., priority 1999, dated 2003).

System: most microbial strains

O=C(O)c1cn(C2CC2)c2cc(N3CCNCC3)c(F)cc2c1=O [ciprofloxacin]
minimum inhibition concentration (MIC): < 2 µg/mL
